Measurements from patent US12403144B2, “HECT E3 ligase inhibitors and uses thereof” (IFOM FONDAZIONE ISTITUTO FIRC DI ONCOLOGIA MOLECOLARE, priority 2019, dated 2025).
Where a name gives a salt, the structure may show the parent alone.

molecular target: T1, HECT of NEDD4 L553F (Homo sapiens, UniProt P46934, L972F); test: In vitro ubiquitination assay detected by western blot, HECT NEDD4 L553F mutant; format: biochemical; conditions: 10 μM; FIG. 4c
T1 construct: 250 nM untagged HECT of NEDD4 WT or NEDD4 L553F or NEDD4L WT; made in house
T1 sequence (P46934 519-900 isoform P46934-4 L553F limits assumed): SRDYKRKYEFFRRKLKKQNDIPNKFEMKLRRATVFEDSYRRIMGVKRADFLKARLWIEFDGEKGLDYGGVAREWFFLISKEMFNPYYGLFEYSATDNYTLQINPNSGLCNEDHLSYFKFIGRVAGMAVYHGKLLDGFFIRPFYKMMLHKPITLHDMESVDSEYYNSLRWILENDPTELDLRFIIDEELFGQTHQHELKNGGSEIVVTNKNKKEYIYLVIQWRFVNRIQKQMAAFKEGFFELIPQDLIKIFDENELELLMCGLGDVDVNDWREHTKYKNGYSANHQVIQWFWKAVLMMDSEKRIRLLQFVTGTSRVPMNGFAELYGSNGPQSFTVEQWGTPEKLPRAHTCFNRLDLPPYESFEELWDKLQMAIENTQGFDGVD
Procedure: In vitro ubiquitination assay performed with HECT NEDD4 WT and HECT NEDD4L WT in presence of the indicated compounds at 10 μM concentration. The symbol “−” indicates the DMSO-treated sample. Reactions were stopped after 1 hour with Laemmli buffer. […] HECT of NEDD4 bound to compound 12 is shown in light grey, superposed with the structure of HECT of NEDD4L (pdb entry 2oni, version 1.2, 13 Jul. 2011, shown in dark grey). c. In vitro ubiquitination assay using the HECT of NEDD4 WT (HECT WT) and L553F (HECT L553F) was performed in presence of compound 12 at 10 μM concentration. The symbol “-” indicates the DMSO-treated sample. Immunoblot was performed with the anti-ubiquitin antibody (upper panel).
An in vitro ubiquitination assay followed by western blot detection was used to determine the selectivity of the different compounds. The full protocol is described in (E. Maspero et al. Methods Mol Biol. 1449:153-60 (2016)). Briefly, the assay was performed with bacterially purified enzymes (20 nM E1, 250 nM of purified His6-tagged UBE2D3 and 250 nM untagged HECT of NEDD4 WT or NEDD4 L553F or NEDD4L WT) and 1 μM of untagged ubiquitin in ubiquitination buffer (25 mM Tris-HCl, pH 7.6, 5 mM MgCl2, 100 mM NaCl, 0.2 μM DTT). […] The binding pocket determined by X-ray is highly conserved among the various members of the NEDD4 family with few important exceptions. […]

With `CCOC(=O)/C=C/CNCCCCN1c2ccccc2CCc2ccc(Cl)cc21.O=C(O)/C=C\C(=O)O` [Compound 12, Ethyl (E)-4-[4-(3-chloro-10,11-dihydro-5H-dibenzo[b,f]azepin-5-yl)butylamino]but-2-enoate maleate] the “activity of compound on HECT NEDD4 L553F mutant (anti-ubiquitin immunoblot)” value was “fully abrogate the activity”.

system: LNCaP cells; test: CellTiter-Glo Luminescent Cell Viability Assay, LNCaP; format: cell-based; conditions: Homo sapiens, 48 hours incubation, mean of at least two determinations, read-out: LNCaP IC50 μM (antiproliferative activity)
Description: CellTiter-Glo® Luminescent Cell Viability Assay (Promega, Catalog number: G7571) is a homogeneous method of determining the number of viable cells in culture based on quantitation of the present ATP, which indicates the presence of metabolically active cells. The homogeneous assay procedure involves addition of a single reagent (CellTiter-Glo® Reagent) directly to the cells, which leads to cell lysis and generation of a luminescent signal proportional to the amount of the ATP and the number of cells present in culture. The assay relies on the properties of a proprietary thermostable luciferase (Ultra-Glo® recombinant luciferase), which generates a luminescent signal.
DU145 cells (obtained from CLS Cell Lines Service GmbH item 300168) were grown in DMEM (Sigma Aldrich catalog number D6171-500 ml) supplemented with 10% Fetal Bovine Serum (Euroclone, catalog number. ECS0180L), 2 mM L-Glutamine (Euroclone catalog number LOBE17605F) and 100 U/ml penicillin-[…] streptomycin (EuroClone, ECB3001L). LNCaP cells (obtained from CLS Cell Lines Service GmbH item 300265) were grown in RPMI1640 (Lonza catalog number BE12-167F) supplemented with 10% Fetal Bovine Serum (Euroclone, catalog number. ECS0180L), 2 mM L-Glutamine (Euroclone catalog number LOBE17605F) and 100 U/ml penicillin-[…] streptomycin (EuroClone, ECB3001 L).
To determine the antiproliferative activity of the compounds, 3000 DU145 cells and 5000 LNCap cells were seeded in 96 multiwell plate (Sigma catalog number CLS9102) per well. 24 hours after seeding, the cells were incubated for 48 hours with different concentrations of the inhibitors (from 50 to 0 μM with a 3-fold dilution) dissolved in DMSO. After 48 hours, a volume of CellTiter-Glo® Reagent equal to the volume of cell culture medium was added. The content was mixed for 2 min to induce cell lysis. The luminescence was measured and recorded with Tecan Infinite 200 multimode plate reader after further 10 min at room temperature in order to obtain a stable luminescent signal.
The IC50 was calculated using GraphPad Software from the recorded luminescent signal.

Point of comparison: `CCOC(=O)/C=C/CNCCCCN1c2cc(Cl)ccc2C(=O)N(C)c2ccccc21` [Compound 42, Ethyl (E)-4-{[4-(3-chloro-10-methyl-11-oxo-10,11-dihydro-5H-dibenzo[b,e][1,4]diazepin-5-yl)butyl]amino}but-2-enoate maleate], IC50 6.49 µM. Against it:
- CCOC(=O)/C=C/CCNCCCN1c2ccccc2CCc2ccc(Cl)cc21 [Compound 5, Ethyl (E)-5-[3-(3-chloro-10,11-dihydro-5H-dibenzo[b,f]azepin-5-yl)propylamino]pent-2-enoate maleate] — 1.7-fold higher, 10.9 µM
- CCOC(=O)/C=C/CNCCCCN1c2ccccc2CCc2ccc(Cl)cc21.O=C(O)/C=C\C(=O)O [Compound 12, Ethyl (E)-4-[4-(3-chloro-10,11-dihydro-5H-dibenzo[b,f]azepin-5-yl)butylamino]but-2-enoate maleate] — within 1.5-fold, 6.67 µM
- CCOC(=O)/C=C/CNCCCCN1c2ccccc2C(=O)N(Cc2ccccc2)c2ccc(Cl)cc21 [Compound 45, Ethyl (E)-4-{[4-(10-benzyl-7-chloro-11-oxo-10,11-dihydro-5H-dibenzo[b,e][1,4]diazepin-5-yl)butyl]amino}but-2-enoate maleate] — within 1.5-fold, 5.69 µM
- CONC(=O)/C=C/CN(C)CCCCN1c2ccccc2CCc2ccc(Cl)cc21 [Compound 85, (E)-4-[4-(3-Chloro-10,11-dihydro-5H-dibenzo[b,f]azepin-5-yl)butyl-methyl-amino]-N-methoxy-but-2-enamide maleate] — 2.5-fold higher, 16.3 µM
